Data on 23 molecules can be found in patent US8952021B2, “Compounds for the prevention and treatment of cardiovascular disease” (Resverlogix Corp., priority 2009, dated 2015).

For one data set, the system named is ApoA-I mRNA. The data set can be described thus: Quantification of ApoA-I mRNA in HepG2 cells (real-time PCR). The data set is classed as cell-based. The arrangement: key: Active: An active compound was defined as one that caused a ≧20% increase in ApoA-I mRNA at a concentration less than or equal to 100 μM. The conditions noted are these: fold induction relative to DMSO control, concentration less than or equal to 100 μM. The protocol:
In this example, ApoA-I mRNA in tissue culture cells was quantitated to measure the transcriptional up-regulation of ApoA-I when treated with a compound of the invention.
HepG2 cells (approximately 2×10^5 per well) were placed in a 24-well plate in approximately 400 μL MEM, supplemented with 0.5% (v/v) FBS, 24 h before addition of the compound of interest. At time of harvesting, the spent media was removed from the HepG2 cells and immediately placed on ice (for immediate use) or at −80° C. (for future use) in ApoA-I and albumin ELISAs. The cells remaining in the plate wells were rinsed in 200 μL PBS. PBS was carefully removed to avoid removing any loosely attached cells.
Once the PBS was removed, 85 μL cell lysis solution was added the cells in each well and incubated for 5-10 minutes at room temperature, to allow for complete cell lysis and detachment. mRNA was then prepared using the “mRNA Catcher PLUS plate” from Invitrogen, according to the protocol supplied. After the last wash, as much wash buffer as possible was aspirated without allowing the wells to dry. Elution Buffer (E3, 80 μL) was then added to each well. mRNA was then eluted by incubating the mRNA Catcher PLUS plate with Elution Buffer for 5 minutes at 68° C. and then immediately placing the plate on ice.
The eluted mRNA isolated was then used in a one-step real-time […] reaction, using components of the Ultra Sense Kit together with Applied Biosystems primer-probe mixes. Real-time PCR data was analyzed, using the Ct values, to determine the fold induction of each unknown sample, relative to the control (that is, relative to the control for each independent DMSO concentration).
An active compound was defined as one that caused a ≧20% increase in ApoA-I mRNA at a concentration less than or equal to 100 μM.

The test system of another data set is subjects with low HDL-C. Particulars: cited from earlier work.

By melting point is commonly meant the temperature, or range, at which the solid turns liquid. In the case of `CCC(C)c1ccc(-n2c(-c3cc(C)c(OCCO)c(C)c3)nc3ccccc3c2=O)cc1` (stereo not drawn) [Example 1 and 2, 3-(4-sec-butylphenyl)-2-(4-(2-hydroxyethoxy)-3,5-dimethylphenyl)quinazolin-4(3H)-one], the melting point is 152 to 153 °C.
For `Cc1cc(-c2nc3ccccc3c(=O)n2-c2ccc(Br)cc2)cc(C)c1OCCO` [Example 3, 3-(4-bromophenyl)-2-(4-(2-hydroxyethoxy)-3,5-dimethylphenyl)quinazolin-4(3H)-one], the melting point was 164 to 165 °C. Moreover, the “Effect on ApoA-I mRNA levels” value in the data set with ApoA-I mRNA is recorded as “Active”.
Consider `CCC(C)c1ccc(-n2c(-c3cc(C)c(OCCO)c(C)c3)nc3ccncc3c2=O)cc1` (stereo not drawn) [Example 5, 3-(4-sec-butylphenyl)-2-(4-(2-hydroxyethoxy)-3,5-dimethylphenyl)pyrido[4,3-d]pyrimidin-4(3H)-one], for which the melting point was 195 to 196 °C. For the same molecule, the “Effect on ApoA-I mRNA levels” value in the data set on ApoA-I mRNA is listed as “Active”.
In the same order, the values of `CCC(C)c1ccc(-n2c(-c3ccc(OCCO)cc3)nc3ccccc3c2=O)cc1` (stereo not drawn) [Example 6, 3-(4-sec-butylphenyl)-2-(4-(2-hydroxyethoxy)phenyl)quinazolin-4(3H)-one] are 172.8 to 174.9 °C and “Active”.
In the same order, the values of `Cc1cc(-c2nc3ccccc3c(=O)n2-c2ccc(F)cc2)cc(C)c1OCCO` [Example 7, 3-(4-fluorophenyl)-2-(4-(2-hydroxyethoxy)-3,5-dimethylphenyl)quinazolin-4(3H)-one] are 95 to 97 °C and “Active”.
`Cc1cc(-c2nc3ccccc3c(=O)n2-c2ccc(I)cc2)cc(C)c1OCCO` [Example 8, 2-(4-(2-hydroxyethoxy)-3,5-dimethylphenyl)-3-(4-iodophenyl)quinazolin-4(3H)-one] registered a melting point of 101 to 103 °C. For the same molecule, in the data set on ApoA-I mRNA, the “Effect on ApoA-I mRNA levels” value was “Active”.
Molecule `Cc1cc(-c2nc3ccccc3c(=O)n2-c2ccc(Cl)cc2)cc(C)c1OCCO` [Example 10, 3-(4-chlorophenyl)-2-(4-(2-hydroxyethoxy)-3,5-dimethylphenyl)quinazolin-4(3H)-one] came in with a melting point of 101 to 103 °C. Besides, the “Effect on ApoA-I mRNA levels” value with ApoA-I mRNA was “Active”.
In the same order, the values of `CCC(C)c1ccc(-n2c(-c3cc(C)c(OCCO)c(C)c3)nc3cc(S(C)(=O)=O)ccc3c2=O)cc1` (stereo not drawn) [Example 12, 3-(4-sec-butylphenyl)-2-(4-(2-hydroxyethoxy)-3,5-dimethylphenyl)-7-(methylsulfonyl)quinazolin-4(3H)-one] are 235 to 237 °C and “Active”.
Taken in the same sequence, the figures for `CCC(C)c1ccc(-n2c(-c3cc(C)c(OCCO)c(C)c3)nc3ccc(OC)cc3c2=O)cc1` (stereo not drawn) [Example 13, 3-(4-sec-butylphenyl)-2-(4-(2-hydroxyethoxy)-3,5-dimethylphenyl)-6-methoxyquinazolin-4(3H)-one] were 152 to 154 °C and “Active”.
In the same order, the values of `CCC(C)c1ccc(-n2c(-c3cc(C)c(OCCO)c(C)c3)nc3c(OC)cccc3c2=O)cc1` (stereo not drawn) [Example 14, 3-(4-sec-butylphenyl)-2-(4-(2-hydroxyethoxy)-3,5-dimethylphenyl)-8-methoxyquinazolin-4(3H)-one] are 158 to 159 °C and “Active”.
Regarding `CCC(C)c1ccc(-n2c(-c3cc(C)c(OCCO)c(C)c3)nc3ccc(S(C)(=O)=O)cc3c2=O)cc1` (stereo not drawn) [Example 15, 3-(4-sec-butylphenyl)-2-(4-(2-hydroxyethoxy)-3,5-dimethylphenyl)-6-(methylsulfonyl)quinazolin-4(3H)-one], the melting point was in the range of 258.8 to 260.2 °C. In the data set with ApoA-I mRNA, the “Effect on ApoA-I mRNA levels” value is “Active”.
`COc1ccc2nc(-c3cc(C)c(OCCO)c(C)c3)n(-c3ccc(Br)cc3)c(=O)c2c1` [Example 16, 3-(4-bromophenyl)-2-(4-(2-hydroxyethoxy)-3,5-dimethylphenyl)-6-methoxyquinazolin-4(3H)-one] registered a melting point of 160 to 162 °C. For the same molecule, in the data set with ApoA-I mRNA, the “Effect on ApoA-I mRNA levels” value is “Active”.
In the same order, the values of `COc1cccc2c(=O)n(-c3ccc(Br)cc3)c(-c3cc(C)c(OCCO)c(C)c3)nc12` [Example 17, 3-(4-bromophenyl)-2-(4-(2-hydroxyethoxy)-3,5-dimethylphenyl)-8-methoxyquinazolin-4(3H)-one] are 100 to 102 °C and “Active”.
The molecule `Cc1cc(-c2nc3ccccc3c(=O)n2-c2ccc(C(C)C)cc2)cc(C)c1OCCO` [Example 18, 2-(4-(2-hydroxyethoxy)-3,5-dimethylphenyl)-3-(4-isopropylphenyl)quinazolin-4(3H)-one] returned a melting point of 160 to 162 °C. The “Effect on ApoA-I mRNA levels” value in the data set on ApoA-I mRNA was “Active”.
In the same order, the values of `Cc1cc(-c2nc3ccccc3c(=O)n2-c2ccc(Br)cc2)ccc1OCCO` [Example 19, 3-(4-bromophenyl)-2-(4-(2-hydroxyethoxy)-3-methylphenyl)quinazolin-4(3H)-one] are 92 to 93 °C and “Active”.
The molecule `Cc1cc(-c2nc3c(Cl)cccc3c(=O)n2-c2ccc(Br)cc2)cc(C)c1OCCO` [Example 20, 3-(4-bromophenyl)-8-chloro-2-(4-(2-hydroxyethoxy)-3,5-dimethylphenyl)quinazolin-4(3H)-one] showed a melting point of 185 to 186 °C. The “Effect on ApoA-I mRNA levels” value in the data set with ApoA-I mRNA is given as “Active”.
With `O=c1c2ccccc2nc(-c2ccc3cc[nH]c3c2)n1-c1ccc(Cl)cc1` [Example 85, 3-(4-chlorophenyl)-2-(1H-indol-6-yl)quinazolin-4(3H)-one], the “Effect on ApoA-I mRNA levels” value in the data set with ApoA-I mRNA is recorded as “Active”.
For `O=c1c2ccccc2nc(-c2cccc3cc[nH]c23)n1-c1ccc(Cl)cc1` [Example 86, 3-(4-chlorophenyl)-2-(1H-indol-7-yl)quinazolin-4(3H)-one], the “Effect on ApoA-I mRNA levels” value with ApoA-I mRNA is reported as “Active”.
On the same count and under the same terms, the same measure for `CCC(C)c1ccc(-n2c(-c3ccc4cc[nH]c4c3)nc3ccccc3c2=O)cc1` (stereo not drawn) [Example 87, 3-(4-sec-butylphenyl)-2-(1H-indol-6-yl)quinazolin-4(3H)-one]: “Active”.
The same measure, in the same setting: then `CCC(C)c1ccc(-n2c(-c3cccc4cc[nH]c34)nc3ccccc3c2=O)cc1` (stereo not drawn) [Example 88, 3-(4-sec-butylphenyl)-2-(1H-indol-7-yl)quinazolin-4(3H)-one], with “Active”.
On the same count and under the same terms, then `O=c1c2ccccc2nc(-c2cccc3[nH]ccc23)n1-c1ccc(Cl)cc1` [Example 89, 3-(4-chlorophenyl)-2-(1H-indol-4-yl)quinazolin-4(3H)-one], with “Active”.
For the molecule `CCC(C)c1ccc(-n2c(-c3cccc4[nH]ccc34)nc3ccccc3c2=O)cc1` (stereo not drawn) [Example 90, 3-(4-sec-butylphenyl)-2-(1H-indol-4-yl)quinazolin-4(3H)-one], in the data set with ApoA-I mRNA, the “Effect on ApoA-I mRNA levels” value is listed as “Active”.
Regarding `Cc1ccc(C)c(OCCCC(C)(C)C(=O)O)c1` [gemfibrozil], in the data set with subjects with low HDL-C, the “increase in the HDL-C level” value is given as 6% and the “reduction of the CHD risk” value is 22%.
